In patent US10258033B2 (Eden Research PLC, priority 2005, dated 2019):

Legend:
S. aureus = experiment: MIC of terpene emulsions and fresh or freeze-dried Baker's YP / SAF Mannan encapsulated terpenes against S. aureus; assay type: cell-based; conditions: for MIC μg/ml terpene, Bakers Freeze Dried / MIC μg/ml terpene, Bakers Fresh: encapsulated in Baker's YP; for MIC μg/ml terpene, SAF Mannan Freeze Dried / MIC μg/ml terpene, SAF Mannan Fresh: encapsulated in SAF Mannan; for MIC μg/ml terpene, Emulsion: not encapsulated
Experimental: The results of a protocol performed to compare the MIC of fresh versus freeze dried hollow glucan particle encapsulated terpene formulations are shown below in Table 13. A simple terpene emulsion was also tested and the results are shown for comparison.

H. pylori = conditions: cited from earlier work
[1] = Suspension and solution of citral in water; assay type: physicochemical
Excerpt: In one embodiment the terpene component includes one or more terpenes which contain oxygen.

E. coli = conditions: cited from earlier work

Row | Molecule | MIC μg/ml terpene, Bakers Freeze Dried (S. aureus) | MIC μg/ml terpene, Bakers Fresh (S. aureus) | MIC μg/ml terpene, SAF Mannan Freeze Dried (S. aureus) | MIC μg/ml terpene, SAF Mannan Fresh (S. aureus) | MIC μg/ml terpene, Emulsion (S. aureus) | concentration that inhibited the growth of H. pylori in vitro (H. pylori) | solution, maximum concentration [1] | stable suspension, maximum concentration [1] | stable suspension of hollow glucan particles incorporating citral ([1]; ppt citral) | concentration in growth media that reduced the concentration of E. coli (E. coli) | concentration with bactericidal effect (E. coli)
1 | C=CCc1ccc(O)c(OC)c1 [Eugenol] | 0.05 μg/ml terpene | 0.03 μg/ml terpene | 0.05 μg/ml terpene | 0.01 μg/ml terpene | 0.12 μg/ml terpene | – | – | – | – | – | –
2 | CC(C)=CCC/C(C)=C/CO [Geraniol] | 0.06 μg/ml terpene | 0.03 μg/ml terpene | >0.03 μg/ml terpene | 0.02 μg/ml terpene | 0.47 μg/ml terpene | 2 mg/L | – | – | – | – | –
3 | L-carvone | >0.04 μg/ml terpene | 0.1 μg/ml terpene | >0.02 μg/ml terpene | 0.01 μg/ml terpene | 3.75 μg/ml terpene | – | – | – | – | – | –
4 | CC(C)=CCCC(C)=CC=O [Citral, 3,7-dimethyl-2,6-octadien-1-al] | 0.05 μg/ml terpene | 0.01 μg/ml terpene | >0.03 μg/ml terpene | 0.01 μg/ml terpene | 0.94 μg/ml terpene | – | up to 500 ppm | up to 2500 ppm | 25 ppt | more than 0.01% | 0.08%
